{"source": "paper PMC9399028", "about": "(European Journal of Nuclear Medicine and Molecular Imaging, 2022)", "key": {"Human recombinant MAO-B": {"molecular_target": "T1, Human recombinant MAO-B (Homo sapiens, UniProt P27338)", "T1 construct": "purchased Sigma M7441", "T1 sequence (P27338 1-520)": "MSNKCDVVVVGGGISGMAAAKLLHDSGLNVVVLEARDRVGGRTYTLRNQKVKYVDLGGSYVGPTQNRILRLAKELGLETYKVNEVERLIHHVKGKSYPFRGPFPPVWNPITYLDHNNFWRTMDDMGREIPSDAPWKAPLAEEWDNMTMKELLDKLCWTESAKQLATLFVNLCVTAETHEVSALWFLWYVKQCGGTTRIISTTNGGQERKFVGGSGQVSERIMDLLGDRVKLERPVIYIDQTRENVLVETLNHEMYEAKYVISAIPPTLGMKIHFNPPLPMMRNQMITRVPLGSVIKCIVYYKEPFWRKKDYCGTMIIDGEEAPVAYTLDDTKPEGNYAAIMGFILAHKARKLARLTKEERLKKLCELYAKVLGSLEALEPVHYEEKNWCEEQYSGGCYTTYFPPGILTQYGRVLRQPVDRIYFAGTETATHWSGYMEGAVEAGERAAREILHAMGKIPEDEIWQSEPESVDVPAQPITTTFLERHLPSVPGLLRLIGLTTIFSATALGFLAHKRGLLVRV", "assay": "Saturation binding of radioligand to MAO-B microsomes", "description": "(§1) The dissociation constant (Kd) was determined by saturation binding, in which the total and non-specific binding of the radioligand was measured at various concentrations. Human recombinant MAO-A, MAO-B, and control microsomes were acquired from Sigma (M7316, M7441, and M7566, respectively). All microsome preparations were at a concentration of 5 mg protein/mL. The reaction mixture (250 μL) contained protein target and ^18F-radioligand, serially diluted in PBS, pH 7.4; assays were performed in PBS (0.01% bovine serum albumin [BSA]) in 96-well polypropylene microplates. […] . Filters were assayed for radioactivity in a Wizard 2480 automatic gamma-counter (Perkin Elmer)."}, "[1]": {"molecular_target": "[^18F]flortaucipir binding to normal human brain (temporal cortex sections)", "assay": "[^18F]flortaucipir autoradiography competition binding assay with MAO-A and MAO-B inhibitors", "conditions": "for IC50: normal (tau NFT negative) human temporal cortex sections, 1.4 nM [^18F]flortaucipir, mild PBS wash, read-out: IC50, inhibition of [^18F]flortaucipir binding (autoradiography)", "description": "After 60-min incubation at room temperature, PBS washes (4 × 2 min) were used to remove any unbound ligand. […] Signal intensity (counts/pixel) on each section was measured using Multi Gauge V3.0 Imaging software. Total binding was evaluated by nonlinear regression using GraphPad Prism v8 to determine IC50 values."}, "MAO-B microsomes [2]": {"molecular_target": "T2, MAO-B microsomes (Homo sapiens, UniProt P27338)", "T2 sequence (P27338 1-520)": "T1 sequence (P27338 1-520)", "assay": "Competition binding, displacement of safinamide from MAO-B microsomes (LC-MS)", "set-up": "purchased Sigma M7441", "description": "IC50 values for each compound were determined by competition binding. […] IC50 values were determined by nonlinear regression analysis using GraphPad Prism."}, "MAO-B microsomes [3]": {"molecular_target": "T2, MAO-B microsomes", "assay": "LC-MS direct saturation binding to MAO-B microsomes"}, "isolated human PHF": {"molecular_target": "isolated human PHF (Homo sapiens, UniProt P10636)", "sequence (P10636 623-695 limits assumed)": "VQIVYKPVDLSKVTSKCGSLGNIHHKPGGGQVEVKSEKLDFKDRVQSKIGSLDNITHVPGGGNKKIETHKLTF", "assay": "Saturation binding of radioligand to isolated PHF", "description": "Purified, soluble PHF was isolated from AD brain tissue using a protocol modified from the procedure described by Jicha et al.. Briefly, homogenized AD cortex underwent high pressure batch–gas expansion using a Parr Cell disruption bomb and centrifuged at […]. […] Bound PHF was eluted with two column volumes of 3M potassium thiocyanate. Isolated PHF was analyzed in a tau MC-1 ELISA and a tau AT8 ELISA, which recognizes tau phosphorylated at both Ser 202 and Thr 205 [3].\nas §1"}, "Human recombinant MAO-A": {"molecular_target": "T3, Human recombinant MAO-A (Homo sapiens, UniProt P21397)", "T3 construct": "purchased Sigma M7316", "T3 sequence (P21397 1-527)": "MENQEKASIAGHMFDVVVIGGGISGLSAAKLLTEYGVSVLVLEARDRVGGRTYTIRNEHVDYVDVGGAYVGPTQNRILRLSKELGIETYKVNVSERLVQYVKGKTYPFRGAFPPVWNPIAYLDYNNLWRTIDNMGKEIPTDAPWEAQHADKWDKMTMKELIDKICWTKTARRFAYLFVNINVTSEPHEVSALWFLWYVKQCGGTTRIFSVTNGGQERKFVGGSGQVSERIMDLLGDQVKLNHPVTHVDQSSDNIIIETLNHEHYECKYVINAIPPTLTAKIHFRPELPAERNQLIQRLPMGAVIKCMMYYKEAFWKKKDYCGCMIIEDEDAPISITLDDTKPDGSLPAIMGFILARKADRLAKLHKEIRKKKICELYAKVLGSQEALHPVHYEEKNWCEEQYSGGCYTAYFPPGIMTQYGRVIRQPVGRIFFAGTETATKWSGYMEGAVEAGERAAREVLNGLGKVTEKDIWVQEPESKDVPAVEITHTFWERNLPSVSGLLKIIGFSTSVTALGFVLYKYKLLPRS", "assay": "Saturation binding of radioligand to MAO-A microsomes", "description": "as §1"}, "MAO-A": {"molecular_target": "T4, MAO-A (Rattus norvegicus, UniProt P21396)", "T4 construct": "Male wild-type Sprague-Dawley rats; from tissue; host or cells: brain of living wild-type Sprague-Dawley rats", "T4 sequence (P21396 1-526)": "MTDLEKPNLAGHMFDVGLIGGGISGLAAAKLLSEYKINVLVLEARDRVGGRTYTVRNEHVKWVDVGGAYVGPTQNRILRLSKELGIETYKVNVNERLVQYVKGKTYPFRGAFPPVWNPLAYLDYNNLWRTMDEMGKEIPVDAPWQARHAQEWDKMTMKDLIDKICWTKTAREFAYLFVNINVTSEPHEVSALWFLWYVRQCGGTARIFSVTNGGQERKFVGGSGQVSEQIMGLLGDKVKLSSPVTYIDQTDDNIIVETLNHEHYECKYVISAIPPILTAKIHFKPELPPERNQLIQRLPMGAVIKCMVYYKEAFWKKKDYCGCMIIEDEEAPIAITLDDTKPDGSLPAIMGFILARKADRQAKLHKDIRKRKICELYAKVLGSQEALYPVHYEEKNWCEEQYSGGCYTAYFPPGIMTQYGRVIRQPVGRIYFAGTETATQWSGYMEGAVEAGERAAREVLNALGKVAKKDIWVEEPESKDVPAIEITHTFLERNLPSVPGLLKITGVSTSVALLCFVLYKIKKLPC", "assay": "In vivo PET imaging in rats with pargyline pre-treatment", "conditions": "for peak brain activity: at 2 min", "description": "All procedures in this study followed the guidelines of the Institutional Animal Care and Use Committee of the University of the Sciences, Philadelphia, PA. A Siemens Inveon Multimodality Scanner was used for micro-PET/computed tomography (CT) imaging. Male wild-type Sprague-Dawley rats (128 ± 58 g) were anesthetized with 3% isoflurane with oxygen. Rats were administered [^18F]fluoroethyl-harmol or [^18F]flortaucipir via tail vein injection (7.4-14.8MBq [200–400 μCi] in a total volume of 200 μL). For blocking studies, rats were pre-treated with pargyline (Sigma-Aldrich, 50 mg/kg i.p.) 30 min prior to scans; control rats were pre-treated with 0.9% saline injection (Hospira, i.p.). A short high-resolution CT scan was first conducted for anatomical registration, followed by a 120-min dynamic PET scan. PET images were generated for each minute of the acquisition time. Uptake of the tracers was determined by visually drawing regions of interest based on the fused PET/CT images, and corresponding activity values were determined using Inveon Research Workplace software. All values are represented as % injected dose per gram (ID/g). A total of 6 rats were studied (3 control, 3 pre-treated) for [^18F]fluoroethyl-harmol and 8 rats for [^18F]flortaucipir (4 control, 4 pre-treated)."}, "[4]": {"test_system": "frozen human brain slices from AD donors (PHF tau-rich) and non-AD control donors", "assay": "[^18F]flortaucipir autoradiography, stringent vs mild wash conditions", "assay_type": "binding", "description": "Autoradiography was performed on frozen human brain slices from AD donors (N = 3, PHF tau-rich as determined by AT8 immunohistochemistry) and age-matched non-AD control donors (N = 6, devoid of tau NFTs and beta-amyloid neuritic plaques as determined by immunohistochemistry). Brains slices were obtained from the National Disease Research Interchange (Philadelphia, PA)."}, "[5]": {"conditions": "NSB defined as binding to control microsomes"}, "[6]": {"conditions": "NSB defined with 10 μM deprenyl"}}, "note": "Entries after “also recorded” stand apart in the source; their conditions may differ. Where two headings read alike, the source gives them in different places.", "data": [{"smiles": "CNc1ccc(-c2ccc3cc(OC[C@H](O)CF)ccc3n2)cn1", "note": "[[^18F]THK5351]", "values": [{"measurement": "Kd", "setting": "Human recombinant MAO-B; [5]", "value": "37 ± 1.8", "unit": "nM"}, {"measurement": "Kd", "setting": "Human recombinant MAO-B; NSB defined with 1 μM THK5351", "value": "40 ± 0.7", "unit": "nM"}, {"measurement": "Kd", "setting": "Human recombinant MAO-B; [6]", "value": "39 ± 1.1", "unit": "nM"}]}, {"smiles": "Fc1ccc(-c2ccc3c(c2)[nH]c2ccncc23)cn1", "note": "[flortaucipir]", "values": [{"measurement": "IC50", "setting": "[1]", "value": 270, "unit": "nM"}, {"measurement": "IC50", "setting": "MAO-B microsomes [2]", "value": 1300, "unit": "nM"}, {"measurement": "specific binding to MAO-B (LC-MS saturation)", "setting": "MAO-B microsomes [3]; higher flortaucipir concentrations", "value": "no specific binding was observed"}]}, {"smiles": "Fc1ccc(-c2ccc3c(c2)[nH]c2ccncc23)cn1", "note": "[[^18F]flortaucipir]", "values": [{"measurement": "Kd", "setting": "isolated human PHF", "value": 0.57, "unit": "nM"}, {"measurement": "Kd", "setting": "Human recombinant MAO-A", "value": 2, "unit": "nM"}]}, {"smiles": "Cc1nccc2c1[nH]c1cc(OCC[18F])ccc12", "note": "[[^18F]fluoroethyl-harmol]", "values": [{"measurement": "brain activity at 110 min", "setting": "MAO-A; control rats, 110 min", "value": 2.1, "unit": "%ID/g"}, {"measurement": "peak brain activity", "setting": "MAO-A; control rats, i.v.", "value": 2.3, "unit": "%ID/g"}, {"measurement": "peak brain activity", "setting": "MAO-A; pargyline 50 mg/kg i.p. pre-treated rats", "value": 2.4, "unit": "%ID/g"}, {"measurement": "brain activity after washout", "setting": "MAO-A; pargyline 50 mg/kg i.p. pre-treated rats, by 20 min", "value": 1.0, "unit": "%ID/g"}]}, {"smiles": "C[C@H](NCc1ccc(OCc2cccc(F)c2)cc1)C(N)=O", "note": "[safinamide]", "values": [{"measurement": "IC50", "setting": "[1]", "value": "≥ 10000", "unit": "nM"}, {"measurement": "Bmax", "setting": "MAO-B microsomes [3]; LC-MS, NSB = control microsome", "value": "446 pmol ligand/mg total protein"}]}, {"smiles": "CNc1ccc(-c2ccc3cc(OC[C@H](O)C[18F])ccc3n2)cn1", "note": "[[^18F]THK5351]", "values": [{"measurement": "Bmax", "setting": "Human recombinant MAO-B; [5]", "value": "49 ± 6.3 pmol ligand/mg total protein"}, {"measurement": "Bmax", "setting": "Human recombinant MAO-B; NSB defined with 1 μM THK5351", "value": "54 ± 3.4 pmol ligand/mg total protein"}, {"measurement": "Bmax", "setting": "Human recombinant MAO-B; [6]", "value": "51 ± 5.5 pmol ligand/mg total protein"}]}, {"smiles": "Cc1nccc2c1[nH]c1cc(OCCF)ccc12", "note": "[fluoroethyl-harmol]", "values": [{"measurement": "IC50", "setting": "[1]", "value": 780, "unit": "nM"}, {"measurement": "IC50", "setting": "MAO-B microsomes [2]; read-out: IC50, displacement of safinamide, 30 nM safinamide, 10 μg MAO-B microsomes", "value": "> 10000", "unit": "nM"}]}, {"smiles": "[18F]c1ccc(-c2ccc3c(c2)[nH]c2ccncc23)cn1", "note": "[[^18F]flortaucipir]", "values": [{"measurement": "fraction of [^18F]flortaucipir bound to normal brain sections that was displaced", "setting": "[1]; mild wash conditions, remainder non-specific and non-saturable", "value": "approximately 50%"}, {"measurement": "saturability of autoradiography signal on AD tissue", "setting": "[4]", "value": "saturable"}, {"measurement": "saturability of off-target binding, mild wash", "setting": "[4]; mild wash, AD and control tissue, 1 μM flortaucipir", "value": "only partially saturable"}, {"measurement": "[^18F]flortaucipir binding on tissue, mild wash", "setting": "[4]; mild washing (PBS), frontal cortex and striatum", "value": "observed on both AD and control tissues"}, {"measurement": "[^18F]flortaucipir binding on tissue, stringent wash", "setting": "[4]; stringent washing (30% and 70% EtOH), frontal cortex and striatum", "value": "observed only on tau NFT-rich AD tissue, not on control tissue"}, {"measurement": "effect of pargyline pre-treatment on brain uptake and clearance", "setting": "MAO-A; rats, control vs pargyline 50 mg/kg", "value": "nearly identical brain uptake with rapid clearance in both the control and pargyline groups"}, {"measurement": "specific binding to MAO-B (radioligand saturation)", "setting": "Human recombinant MAO-B; MAO-B microsomes vs control microsomes or 10 μM deprenyl", "value": "no specific binding; also recorded: no significant binding"}]}]}
